Legend:
Assay type in all cases: in vivo
Scirpus juncoides = assay: Test Example 2: herbicidal activity, application during weed generation in submerged conditions (symbol B); conditions: Table 23; application herbicide amount 320 g/ha; grade 0-5 by criteria of Test Example 1
Outline: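 Compound was applied as a water-diluted emulsion into the standing water of flooded pots (4 cm) once co-sown weeds reached one to two leaves. Greenhouse temperature was 25° C. to 30° C., soil was alluvial, and each species was rated visually after 3 weeks.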

[1] = tested on: Echinochloa crus-galli var. crus-galli; assay: Test Example 3: herbicidal effect by foliage application, Wagner pot (symbol H); conditions: application herbicide amount 320 g/ha
Outline: (§1)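 In a shallow-flooded alluvial soil system held at 25–30 °C, plants including rice grew for 14 days and were then sprayed over the foliage with emulsion diluted to a fixed herbicide amount. Visual rating followed at 3 weeks.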

[2] = tested on: Echinochloa crus-galli var. crus-galli; assay: Test Example 4: herbicidal effect by soil treatment (symbol H)
Outline: (§2)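 Seeds were sown in sterilized diluvial soil, covered with about 1.5 cm of soil, and the soil surface was sprayed with a water-diluted emulsion of the compound at a predetermined rate. Plants grew in a greenhouse at 25° C. to 30° C.; effects were scored visually 3 weeks after application.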

Lolium multiflorum Lam. [3] = assay: Test Example 4: herbicidal effect by soil treatment (symbol K)
Outline: as §2

Galium spurium = assay: Test Example 4: herbicidal effect by soil treatment (symbol Q); conditions: 320 g/ha
Outline: as §2

corn = assay: Test Example 4: effect on crop by soil treatment (symbol c); conditions: for c: corn, effect grade on crop: 320 g/ha
Outline: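 Sterilized diluvial soil, spot sowing, ~1.5 cm soil cover; greenhouse 25–30° C.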

rice = assay: Test Example 4: effect on crop by soil treatment (symbol b); conditions: for b: directly sowed rice plant, effect grade on crop: 320 g/ha
Outline: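 Plants are raised in a greenhouse (25° C. to 30° C.) from spot-sown seed, which sits under about 1.5 cm of sterilized diluvial soil in a box shared with weed species.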

Setaria viridis = assay: Test Example 5: herbicidal effect by foliage application, plastic box (symbol G); conditions: 320 g/ha, 3 weeks after application
Outline: (§3)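 Post-emergence spray; diluvial soil (sterilized), ~1.5 cm seed cover; greenhouse 25–30° C; 14-day-old plants; water-diluted emulsion at predetermined dose; visual score at 3 wk post-treatment.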

Avena fatua = assay: Test Example 5: herbicidal effect by foliage application, plastic box (symbol I); conditions: 320 g/ha, 3 weeks after application
Outline: as §3

Alopecurus myosuroides = assay: Test Example 5: herbicidal effect by foliage application, plastic box (symbol J); conditions: 320 g/ha, 3 weeks after application
Outline: as §3

Lolium multiflorum Lam. [4] = assay: Test Example 5: herbicidal effect by foliage application, plastic box (symbol K); conditions: 320 g/ha, 3 weeks after application
Outline: as §3

Stellaria media = assay: Test Example 5: herbicidal effect by foliage application, plastic box (symbol P); conditions: 320 g/ha, 3 weeks after application
Outline: as §3

Veronica persica = assay: Test Example 5: herbicidal effect by foliage application, plastic box (symbol R); conditions: 320 g/ha, 3 weeks after application
Outline: as §3

rice plant = assay: Test Example 5: effect on crop by foliage application, plastic box (symbol b); conditions: 320 g/ha, 3 weeks after application
Outline: (§4)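 Foliage-application test plants come from spot sowing in sterilized diluvial soil under a soil layer of about 1.5 cm, grown at 25° C. to 30° C. in a greenhouse.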

wheat = assay: Test Example 5: effect on crop by foliage application, plastic box (symbol e); conditions: 320 g/ha, 3 weeks after application
Outline: as §4

Cyperus difformis = assay: Test Example 3: herbicidal effect by foliage application, Wagner pot (symbol E); conditions: application herbicide amount 320 g/ha
Outline: as §1

Apera spica-venti = assay: Test Example 4: herbicidal effect by soil treatment (symbol L)
Outline: as §2

[5] = application herbicide amount 320 g/ha

With `CON=C(C)CC1CC(OS(=O)(=O)CCCCl)=C(c2c(C)cc(C)cc2C)C1=O` (stereo not drawn) [1-142] the “Herbicidal effect grade, B: Scirpus juncoides” value (from here on “Herbicidal effect grade, B”) (Scirpus juncoides) was 4 (Herbicidal ratio of 70% or higher and lower than 90%), the “herbicidal effect on H (Echinochloa crus-galli var. crus-galli), grade 0-5” value (“herbicidal effect on H” for short) [1] was 5 (Herbicidal ratio of 90% or more (almost completely withered)) and the “H: Echinochloa crus-galli var. crus-galli, herbicidal effect grade” value ([2]; 320 g/ha) was 5 (Herbicidal ratio of 90% or more (almost completely withered)). The “K: Lolium multiflorum Lam., herbicidal effect grade” value (Lolium multiflorum Lam. [3]; 320 g/ha) was 5 (Herbicidal ratio of 90% or more (almost completely withered)), the “Q: Galium spurium, herbicidal effect grade” value (Galium spurium) was 0 (Herbicidal ratio of 5% or lower (almost no effect)) and the “c: corn, effect grade on crop” value (corn) was 0 (Herbicidal ratio of 5% or lower (almost no effect)). The “b: directly sowed rice plant, effect grade on crop” value (rice) was 5 (Herbicidal ratio of 90% or more (almost completely withered)), the “G: Setaria viridis, herbicidal effect (criteria 0-5)” value (Setaria viridis) was 5 (Herbicidal ratio of 90% or more (almost completely withered)) and the “I: Avena fatua, herbicidal effect (criteria 0-5)” value (Avena fatua) was 5 (Herbicidal ratio of 90% or more (almost completely withered)). The “J: Alopecurus myosuroides, herbicidal effect (criteria 0-5)” value (Alopecurus myosuroides) was 5 (Herbicidal ratio of 90% or more (almost completely withered)), the “K: Lolium multiflorum Lam., herbicidal effect (criteria 0-5)” value (Lolium multiflorum Lam. [4]) was 5 (Herbicidal ratio of 90% or more (almost completely withered)) and the “P: Stellaria media, herbicidal effect (criteria 0-5)” value (Stellaria media) was 3 (Herbicidal ratio of 40% or higher and lower than 70%). The “R: Veronica persica, herbicidal effect (criteria 0-5)” value (Veronica persica) was 3 (Herbicidal ratio of 40% or higher and lower than 70%), the “b: directly sowed rice plant, effect on crop (criteria 0-5)” value (rice plant) was 5 (Herbicidal ratio of 90% or more (almost completely withered)) and the “e: wheat, effect on crop (criteria 0-5)” value (wheat) was 4 (Herbicidal ratio of 70% or higher and lower than 90%).
`CON=C(C)CC1CC(O)=C(c2c(C)cc(-c3cccc(Cl)c3)cc2C)C1=O` (mixture of isomers) [6-034] was tested, and the “Herbicidal effect grade, B” value (Scirpus juncoides) was 5 (Herbicidal ratio of 90% or more (almost completely withered)), the “herbicidal effect on H” value [1] was 5 (Herbicidal ratio of 90% or more (almost completely withered)) and the “herbicidal effect on E, grade 0-5” value (Cyperus difformis) was 4 (Herbicidal ratio of 70% or higher and lower than 90%). The “H: Echinochloa crus-galli var. crus-galli, herbicidal effect grade” value [2, 5] was 5 (Herbicidal ratio of 90% or more (almost completely withered)), the “K: Lolium multiflorum Lam., herbicidal effect grade” value (Lolium multiflorum Lam. [3]; [5]) was 5 (Herbicidal ratio of 90% or more (almost completely withered)) and the “L: Apera spica-venti, herbicidal effect grade” value (from here on “L: Apera spica-venti”) (Apera spica-venti; [5]) was 5 (Herbicidal ratio of 90% or more (almost completely withered)). For the same compound, the “c: corn, effect on crop grade” value (corn; [5]) was 1 (Herbicidal ratio of 5% or higher and lower than 20%), the “b: directly sowed rice plant, effect on crop grade” value (rice; [5]) was 2 (Herbicidal ratio of 20% or higher and lower than 40%) and the “G: Setaria viridis, herbicidal effect grade” value (Setaria viridis) was 5 (Herbicidal ratio of 90% or more (almost completely withered)). The “I: Avena fatua, herbicidal effect grade” value (Avena fatua) was 5 (Herbicidal ratio of 90% or more (almost completely withered)), the “J: Alopecurus myosuroides, herbicidal effect grade” value (Alopecurus myosuroides) was 5 (Herbicidal ratio of 90% or more (almost completely withered)) and the “K: Lolium multiflorum Lam., herbicidal effect grade” value (Lolium multiflorum Lam. [4]) was 4 (Herbicidal ratio of 70% or higher and lower than 90%). The “P: Stellaria media, herbicidal effect grade” value (Stellaria media) was 3 (Herbicidal ratio of 40% or higher and lower than 70%), the “R: Veronica persica, herbicidal effect grade” value (Veronica persica) was 3 (Herbicidal ratio of 40% or higher and lower than 70%) and the “b: directly sowed rice plant, effect on crop grade” value (rice plant) was 5 (Herbicidal ratio of 90% or more (almost completely withered)). For the same compound, the “e: wheat, effect on crop grade” value (wheat) was 0 (Herbicidal ratio of 5% or lower (almost no effect)).
`COC(=O)C(C(C)=O)C1CC(O)=C(c2c(C)cc(C)cc2C)C1=O` (stereo not drawn) [2-003] was tested, and the “Herbicidal effect grade, B” value (Scirpus juncoides) was 0 (Herbicidal ratio of 5% or lower (almost no effect)), the “herbicidal effect on H” value [1] was 5 (Herbicidal ratio of 90% or more (almost completely withered)) and the “herbicidal effect on E, grade 0-5” value (Cyperus difformis) was 4 (Herbicidal ratio of 70% or higher and lower than 90%). The “H: Echinochloa crus-galli var. crus-galli, herbicidal effect grade” value ([2]; 320 g/ha) was 0 (Herbicidal ratio of 5% or lower (almost no effect)), the “K: Lolium multiflorum Lam., herbicidal effect grade” value (Lolium multiflorum Lam. [3]; 320 g/ha) was 5 (Herbicidal ratio of 90% or more (almost completely withered)) and the “L: Apera spica-venti” value (Apera spica-venti; 320 g/ha) was 5 (Herbicidal ratio of 90% or more (almost completely withered)). For the same compound, the “c: corn, effect grade on crop” value (corn) was 0 (Herbicidal ratio of 5% or lower (almost no effect)), the “b: directly sowed rice plant, effect grade on crop” value (rice) was 2 (Herbicidal ratio of 20% or higher and lower than 40%) and the “G: Setaria viridis, herbicidal effect grade” value (Setaria viridis) was 5 (Herbicidal ratio of 90% or more (almost completely withered)). For the same compound, the “I: Avena fatua, herbicidal effect grade” value (Avena fatua) was 5 (Herbicidal ratio of 90% or more (almost completely withered)), the “J: Alopecurus myosuroides, herbicidal effect grade” value (Alopecurus myosuroides) was 5 (Herbicidal ratio of 90% or more (almost completely withered)) and the “K: Lolium multiflorum Lam., herbicidal effect grade” value (Lolium multiflorum Lam. [4]) was 5 (Herbicidal ratio of 90% or more (almost completely withered)). The “P: Stellaria media, herbicidal effect grade” value (Stellaria media) was 0 (Herbicidal ratio of 5% or lower (almost no effect)), the “R: Veronica persica, herbicidal effect grade” value (Veronica persica) was 3 (Herbicidal ratio of 40% or higher and lower than 70%) and the “b: directly sowed rice plant, effect on crop grade” value (rice plant) was 5 (Herbicidal ratio of 90% or more (almost completely withered)). For the same compound, the “e: wheat, effect on crop grade” value (wheat) was 0 (Herbicidal ratio of 5% or lower (almost no effect)).
With `CON=C(C)CC1CC(OC(=O)c2ccc(C(F)(F)F)cc2)=C(c2c(C)cc(C)cc2C)C1=O` (stereo not drawn) [1-149] the “Herbicidal effect grade, B” value (Scirpus juncoides) was 4 (Herbicidal ratio of 70% or higher and lower than 90%), the “herbicidal effect on H” value [1] was 5 (Herbicidal ratio of 90% or more (almost completely withered)) and the “herbicidal effect on E, grade 0-5” value (Cyperus difformis) was 5 (Herbicidal ratio of 90% or more (almost completely withered)). The “H: Echinochloa crus-galli var. crus-galli, herbicidal effect grade” value ([2]; 320 g/ha) was 5 (Herbicidal ratio of 90% or more (almost completely withered)), the “K: Lolium multiflorum Lam., herbicidal effect grade” value (Lolium multiflorum Lam. [3]; 320 g/ha) was 5 (Herbicidal ratio of 90% or more (almost completely withered)) and the “L: Apera spica-venti” value (Apera spica-venti; 320 g/ha) was 5 (Herbicidal ratio of 90% or more (almost completely withered)). The “c: corn, effect grade on crop” value (corn) was 2 (Herbicidal ratio of 20% or higher and lower than 40%), the “b: directly sowed rice plant, effect grade on crop” value (rice) was 5 (Herbicidal ratio of 90% or more (almost completely withered)) and the “G: Setaria viridis, herbicidal effect (criteria 0-5)” value (Setaria viridis) was 5 (Herbicidal ratio of 90% or more (almost completely withered)). For the same compound, the “I: Avena fatua, herbicidal effect (criteria 0-5)” value (Avena fatua) was 5 (Herbicidal ratio of 90% or more (almost completely withered)), the “J: Alopecurus myosuroides, herbicidal effect (criteria 0-5)” value (Alopecurus myosuroides) was 5 (Herbicidal ratio of 90% or more (almost completely withered)) and the “K: Lolium multiflorum Lam., herbicidal effect (criteria 0-5)” value (Lolium multiflorum Lam. [4]) was 5 (Herbicidal ratio of 90% or more (almost completely withered)). The “P: Stellaria media, herbicidal effect (criteria 0-5)” value (Stellaria media) was 3 (Herbicidal ratio of 40% or higher and lower than 70%), the “R: Veronica persica, herbicidal effect (criteria 0-5)” value (Veronica persica) was 2 (Herbicidal ratio of 20% or higher and lower than 40%) and the “b: directly sowed rice plant, effect on crop (criteria 0-5)” value (rice plant) was 5 (Herbicidal ratio of 90% or more (almost completely withered)). The “e: wheat, effect on crop (criteria 0-5)” value (wheat) was 5 (Herbicidal ratio of 90% or more (almost completely withered)).

— patent publication US11000033B2, “Ketone or oxime compound, and herbicide” (NISSAN CHEMICAL CORPORATION, priority 2014, dated 2021)
